Laboratory results as given in patent publication US9593305B2, “Differentiation of pluripotent stem cells” (Janssen Biotech, Inc., priority 2008, dated 2017).

Test system: H1 human embryonic stem cells
Test: MTS assay of cell proliferation during definitive endoderm differentiation (Example 23)
Type: cell-based
Conditions: 100 ng/ml growth factor with 8 ng/ml bFGF, with or without Wnt3a
Description: Stock cultures of human embryonic stem cells (H1 human embryonic stem cell line) were maintained in an undifferentiated, pluripotent state on reduced growth factor […]™ (BD Biosciences; Cat #356231)-coated dishes in MEF conditioned medium with passage on average every four days. Passage was performed by exposing cell cultures to a solution of 1 mg/ml dispase (Invitrogen, Cat #: 17105-041) for 5 to 7 minutes at 37° C. followed by rinsing the monolayer with MEF conditioned culture medium and gentle scraping to recover cell clusters. Clusters were centrifuged at low speed to collect a cell pellet and remove residual dispase. Cell clusters were split at a 1:3 or 1:4 ratio for routine maintenance culture or a 1:1 ratio for immediate assay. All human embryonic stem cell lines were maintained at passage numbers less than 50 and routinely evaluated for normal karyotypic phenotype and for absence of mycoplasma contamination. […]
At the conclusion of 24, 48, or 72 hours of culture, one set of assay plates was subjected to a MTS assay (Promega; Cat#G3581), following the manufacturer's instructions. In brief, 20 μl of MTS was added to each well, and assay plates were incubated at 37° C., 5% CO2 for four hours prior to taking OD490 readings. […]

Activin A: recombinant human activin A (PeproTech), TGF-beta family member
OD490 (MTS) over the three day assay, control treatments: incremental increases in OD490

GDF-8: growth factor GDF-8, also known as myostatin, member of the TGF-β family
OD490 (MTS) over the three day assay, control treatments: decrease in OD490 relative to activin A treatment
